Measurements from patent US12077537B2 (Gilead Sciences, Inc., priority 2020, dated 2024).
pEC50: −log10 of the molar value.

Tested on: HIV-IIIb
Test: Antiviral assay in MT4 cells
Format: cell-based
Conditions: Human immunodeficiency virus 1, MT4, 120 h; MT-4 cells mixed with HIV-IIIb at m.o.i. 0.003; 5 days at 37° C.; CellTiter-Glo luminescence; 50% decrease in signal, a measure of HIV-1 replication
In short: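 Compound, tested at ten 3-fold dilutions in quadruplicate in 10% FBS medium, received MT-4 cells pre-mixed 1 hour with HIV-IIIb (m.o.i. 0.003). Protection was read as luminescent cell viability (CellTiter-Glo) after 5 days' culture at 37° C.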

SMILES | pEC50
Cn1nc(NS(C)(=O)=O)c2c(Cl)ccc(-c3cc4sc(O)nc4nc3[C@H](Cc3cc(F)cc(F)c3)NC(=O)Cn3nc(C(F)F)c4c3C(F)(F)[C@@H]3C[C@H]43)c21 [Example 112, N—((S)-1-(6-(4-chloro-1-methyl-3-(methylsulfonamido)-1H-indazol-7-yl)-2-hydroxythiazolo[4,5-b]pyridin-5-yl)-2-(3,5-difluorophenyl)ethyl)-2-((3bS,4aR)-3-(difluoromethyl)-5,5-difluoro-3b,4,4a,5-tetrahydro-1H-cyclopropa[3,4]cyclopenta[1,2-c]pyrazol-1-yl)acetamide] | 8.42
Cn1nc(NS(C)(=O)=O)c2cccc(-c3cc4sc(O)nc4nc3[C@H](Cc3cc(F)cc(F)c3)NC(=O)Cn3nc(C(F)(F)F)c4c3C(F)(F)[C@@H]3C[C@H]43)c21 [Example 113, 2-((3bS,4aR)-5,5-difluoro-3-(trifluoromethyl)-3b,4,4a,5-tetrahydro-1H-cyclopropa[3,4]cyclopenta[1,2-c]pyrazol-1-yl)-N—((S)-2-(3,5-difluorophenyl)-1-(2-hydroxy-6-(1-methyl-3-(methylsulfonamido)-1H-indazol-7-yl)thiazolo[4,5-b]pyridin-5-yl)ethyl)acetamide] | 8.09
NC(=O)c1cc(-c2cc3nc(O)oc3nc2[C@H](Cc2cc(F)cc(F)c2)NC(=O)Cn2nc(C(F)(F)F)c3c2C(F)(F)[C@@H]2C[C@H]32)ccc1F [Example 114, 5-(5-((S)-1-(2-((3bS,4aR)-5,5-difluoro-3-(trifluoromethyl)-3b,4,4a,5-tetrahydro-1H-cyclopropa[3,4]cyclopenta[1,2-c]pyrazol-1-yl)acetamido)-2-(3,5-difluorophenyl)ethyl)-2-hydroxyoxazolo[5,4-b]pyridin-6-yl)-2-fluorobenzamide] | 6.23
Cn1nc(N)c2c(Cl)ccc(-c3cc4sc(NCC(C)(C)O)nc4nc3[C@H](Cc3cc(F)cc(F)c3)NC(=O)Cn3nc(C(F)(F)F)c4c3C(F)(F)[C@@H]3C[C@H]43)c21 [Example 115, N—((S)-1-(6-(3-amino-4-chloro-1-methyl-1H-indazol-7-yl)-2-((2-hydroxy-2-methylpropyl)amino)thiazolo[4,5-b]pyridin-5-yl)-2-(3,5-difluorophenyl)ethyl)-2-((3bS,4aR)-5,5-difluoro-3-(trifluoromethyl)-3b,4,4a,5-tetrahydro-1H-cyclopropa[3,4]cyclopenta[1,2-c]pyrazol-1-yl)acetamide] | 8.15
Cn1nc(N)c2c(Cl)ccc(-c3cc4sc(NCC(C)(C)O)nc4nc3[C@H](Cc3cc(F)cc(F)c3)NC(=O)Cn3nc(C(F)F)c4c3C(F)(F)[C@@H]3C[C@H]43)c21 [Example 116, N—((S)-1-(6-(3-amino-4-chloro-1-methyl-1H-indazol-7-yl)-2-((2-hydroxy-2-methylpropyl)amino)thiazolo[4,5-b]pyridin-5-yl)-2-(3,5-difluorophenyl)ethyl)-2-((3bS,4aR)-3-(difluoromethyl)-5,5-difluoro-3b,4,4a,5-tetrahydro-1H-cyclopropa[3,4]cyclopenta[1,2-c]pyrazol-1-yl)acetamide] | 8.46
NC(=O)c1cc(-c2nc3nc(C(Cc4cc(F)cc(F)c4)NC(=O)Cn4nc(C(F)(F)F)c5c4C(F)(F)[C@@H]4C[C@H]54)c(-c4ccc(F)c(C(N)=O)c4)cc3s2)ccc1F (stereo partly drawn) [Example 117, 5,5′-(5-(1-(2-((3bS,4aR)-5,5-difluoro-3-(trifluoromethyl)-3b,4,4a,5-tetrahydro-1H-cyclopropa[3,4]cyclopenta[1,2-c]pyrazol-1-yl)acetamido)-2-(3,5-difluorophenyl)ethyl)thiazolo[4,5-b]pyridine-2,6-diyl)bis(2-fluorobenzamide)] | 7.03
NC(=O)c1cc(-c2cc3sc(-c4ccccc4)nc3nc2[C@H](Cc2cc(F)cc(F)c2)NC(=O)Cn2nc(C(F)(F)F)c3c2C(F)(F)[C@@H]2C[C@H]32)ccc1F [Example 118, 5-(5-((S)-1-(2-((3bS,4aR)-5,5-difluoro-3-(trifluoromethyl)-3b,4,4a,5-tetrahydro-1H-cyclopropa[3,4]cyclopenta[1,2-c]pyrazol-1-yl)acetamido)-2-(3,5-difluorophenyl)ethyl)-2-phenylthiazolo[4,5-b]pyridin-6-yl)-2-fluorobenzamide] | 6.52
NC(=O)c1nc2nc(C(Cc3cc(F)cc(F)c3)NC(=O)Cn3nc(C(F)(F)F)c4c3C(F)(F)[C@@H]3C[C@H]43)c(-c3ccc(F)c(C(N)=O)c3)cc2s1 (stereo partly drawn) [Example 119, 6-(3-carbamoyl-4-fluorophenyl)-5-(1-(2-((3bS,4aR)-5,5-difluoro-3-(trifluoromethyl)-3b,4,4a,5-tetrahydro-TH-cyclopropa[3,4]cyclopenta[1,2-c]pyrazol-1-yl)acetamido)-2-(3,5-difluorophenyl)ethyl)thiazolo[4,5-b]pyridine-2-carboxamide] | 7.14

Results, then the compound that gave them:

pEC50 | SMILES
6.53 | Cc1c(-c2cc3[nH]c(-c4ccccc4)cc3nc2[C@H](Cc2cc(F)cc(F)c2)NC(=O)Cn2nc(C(F)(F)F)c3c2C(F)(F)[C@@H]2C[C@H]32)ccc2n[nH]c(=O)n12 [Example 120, 2-((3bS,4aR)-5,5-difluoro-3-(trifluoromethyl)-3b,4,4a,5-tetrahydro-1H-cyclopropa[3,4]cyclopenta[1,2-c]pyrazol-1-yl)-N—((S)-2-(3,5-difluorophenyl)-1-(6-(5-methyl-3-oxo-2,3-dihydro-[1,2,4]triazolo[4,3-a]pyridin-6-yl)-2-phenyl-1H-pyrrolo[3,2-b]pyridin-5-yl)ethyl)acetamide]
7.10 | Cn1nc(NS(C)(=O)=O)c2cccc(-c3cc4[nH]c(-c5ccccc5)cc4nc3[C@H](Cc3cc(F)cc(F)c3)NC(=O)Cn3nc(C(F)(F)F)c4c3C(F)(F)[C@@H]3C[C@H]43)c21 [Example 121, 2-((3bS,4aR)-5,5-difluoro-3-(trifluoromethyl)-3b,4,4a,5-tetrahydro-1H-cyclopropa[3,4]cyclopenta[1,2-c]pyrazol-1-yl)-N—((S)-2-(3,5-difluorophenyl)-1-(6-(1-methyl-3-(methylsulfonamido)-1H-indazol-7-yl)-2-phenyl-1H-pyrrolo[3,2-b]pyridin-5-yl)ethyl)acetamide]
7.91 | Cn1nc(NS(C)(=O)=O)c2cccc(-c3cc4[nH]c(-c5ccccc5)cc4nc3[C@H](Cc3cc(F)cc(F)c3)NC(=O)Cn3nc(C(F)F)c4c3C3CC3CC4)c21 (stereo partly drawn) [Example 122, 2-(3-(difluoromethyl)-5,5a,6,6a-tetrahydrocyclopropa[g]indazol-1(4H)-yl)-N—((S)-2-(3,5-difluorophenyl)-1-(6-(1-methyl-3-(methylsulfonamido)-1H-indazol-7-yl)-2-phenyl-1H-pyrrolo[3,2-b]pyridin-5-yl)ethyl)acetamide]
8.07 | Cn1cc(-c2nc3nc(C(Cc4cc(F)cc(F)c4)NC(=O)Cn4nc(C(F)(F)F)c5c4C(F)(F)[C@@H]4C[C@H]54)c(-c4cccc5c(NS(C)(=O)=O)nn(C)c45)cc3s2)cn1 (stereo partly drawn) [Example 123, 2-((3bS,4aR)-5,5-difluoro-3-(trifluoromethyl)-3b,4,4a,5-tetrahydro-1H-cyclopropa[3,4]cyclopenta[1,2-c]pyrazol-1-yl)-N-(2-(3,5-difluorophenyl)-1-(2-(1-methyl-1H-pyrazol-4-yl)-6-(1-methyl-3-(methylsulfonamido)-1H-indazol-7-yl)thiazolo[4,5-b]pyridin-5-yl)ethyl)acetamide]
7.87 | Cn1nc(NS(C)(=O)=O)c2cccc(-c3cc4sc(N5CCC(C)(O)CC5)nc4nc3C(Cc3cc(F)cc(F)c3)NC(=O)Cn3nc(C(F)(F)F)c4c3C(F)(F)[C@@H]3C[C@H]43)c21 (stereo partly drawn) [Example 124, 2-((3bS,4aR)-5,5-difluoro-3-(trifluoromethyl)-3b,4,4a,5-tetrahydro-1H-cyclopropa[3,4]cyclopenta[1,2-c]pyrazol-1-yl)-N-(2-(3,5-difluorophenyl)-1-(2-(4-hydroxy-4-methylpiperidin-1-yl)-6-(1-methyl-3-(methylsulfonamido)-1H-indazol-7-yl)thiazolo[4,5-b]pyridin-5-yl)ethyl)acetamide]
7.76 | Cn1nc(NS(C)(=O)=O)c2cccc(-c3cc4sc(N5CCC(C)(O)C5)nc4nc3C(Cc3cc(F)cc(F)c3)NC(=O)Cn3nc(C(F)(F)F)c4c3C(F)(F)[C@@H]3C[C@H]43)c21 (stereo partly drawn) [Example 125, 2-((3bS,4aR)-5,5-difluoro-3-(trifluoromethyl)-3b,4,4a,5-tetrahydro-1H-cyclopropa[3,4]cyclopenta[1,2-c]pyrazol-1-yl)-N-(2-(3,5-difluorophenyl)-1-(2-(3-hydroxy-3-methylpyrrolidin-1-yl)-6-(1-methyl-3-(methylsulfonamido)-1H-indazol-7-yl)thiazolo[4,5-b]pyridin-5-yl)ethyl)acetamide]
7.47 | Cn1nc(NS(C)(=O)=O)c2cccc(-c3cc4sc(N5CCC(C)(N)CC5)nc4nc3C(Cc3cc(F)cc(F)c3)NC(=O)Cn3nc(C(F)(F)F)c4c3C(F)(F)[C@@H]3C[C@H]43)c21 (stereo partly drawn) [Example 126, N-(1-(2-(4-amino-4-methylpiperidin-1-yl)-6-(1-methyl-3-(methylsulfonamido)-1H-indazol-7-yl)thiazolo[4,5-b]pyridin-5-yl)-2-(3,5-difluorophenyl)ethyl)-2-((3bS,4aR)-5,5-difluoro-3-(trifluoromethyl)-3b,4,4a,5-tetrahydro-TH-cyclopropa[3,4]cyclopenta[1,2-c]pyrazol-1-yl)acetamide]
7.50 | Cn1nc(NS(C)(=O)=O)c2cccc(-c3cc4sc(N5CCC(C)(C(N)=O)CC5)nc4nc3C(Cc3cc(F)cc(F)c3)NC(=O)Cn3nc(C(F)(F)F)c4c3C(F)(F)[C@@H]3C[C@H]43)c21 (stereo partly drawn) [Example 127, 1-(5-(1-(2-((3bS,4aR)-5,5-difluoro-3-(trifluoromethyl)-3b,4,4a,5-tetrahydro-TH-cyclopropa[3,4]cyclopenta[1,2-c]pyrazol-1-yl)acetamido)-2-(3,5-difluorophenyl)ethyl)-6-(1-methyl-3-(methylsulfonamido)-1H-indazol-7-yl)thiazolo[4,5-b]pyridin-2-yl)-4-methylpiperidine-4-carboxamide]
